Values quoted from earlier work in patent US6924311B2, “Methods for affecting various diseases utilizing LXR compounds” (X-Ceptor Therapeutics, Inc., priority 2001, dated 2005).

Conditions: db/db mice, known anti-diabetic RXR agonist, positive control; cited from earlier work

CC1(C)CCC(C)(C)c2cc(C3(c4ccc(C(=O)O)cn4)CC3)c(F)cc21 [Compound 2, 6-[1-(3-Fluoro-5,5,8,8-tetramethyl-5,6,7,8-tetrahydro-napthalen-2-yl)-cyclopropyl]-nicotinic acid]
effect on blood glucose levels: effectively lower blood glucose levels in db/db mice
